# Reference: a melting point compilation (Tetko et al.; mined from patent text by program, amines drawn as free bases though some values may be those of a salt)
row,SMILES,melting point
1,COc1ccc(C2(C)C(=O)c3c(N4CCN(C)CC4)cc(Cl)cc3N(Cc3ccccc3)C2=O)cc1 (configuration not stated),66 to 67 °C
2,O=C(Nc1cccc(Cl)c1)N1CCN(C(=O)c2ccc(Nc3ccnc4cc(C(F)(F)F)ccc34)cc2)CC1,266 to 268 °C
3,COc1ccccc1N1CCN(C[C@@H](C)N(C(=O)c2ccccc2)C(=O)c2ccccc2)CC1,115 to 120 °C
4,Cc1oc(-c2ccccc2)nc1COc1ccc(CN(O)C(N)=O)cc1,157 to 159 °C
5,CCCc1c(O)c(C(C)=O)cc(Br)c1OCCCOc1c(C(C)=O)ccc(OCC(=O)O)c1CCC,129 to 130 °C
6,CC(Cn1cc(Cl)c2ccccc21)N(O)C(N)=O (configuration not stated),168 to 171 °C
7,O=C(O)CCCC/C=C(\c1ccc(-c2nc(C(=O)NCCCCCOc3ccccc3)co2)cc1)c1cccnc1,42 to 48 °C
8,CC#CN(C)c1nc2ccccc2s1,58 to 59 °C
9,COc1ccnc(Cl)c1C#N,168 to 171 °C
10,CC1=NN(C(=O)NS(=O)(=O)c2ncccc2C(F)(F)F)C(c2ccccc2)C1 (configuration not stated),185 to 187 °C
11,CCCC1=C(C(=O)OCC)C(c2ccccc2OC2CCCC2)c2c[nH]nc2N1 (configuration not stated),195 °C
12,O=C(O)c1ccc(-c2csc(-c3cccnc3)n2)cc1,> 300 °C
13,CON=Cc1ccc2c(c1CN1CCN(C)CC1)OCO2,100 to 102 °C
14,CCOC(=O)C(=O)C(C#N)Cc1ccccc1 (configuration not stated),80 to 83 °C
15,COC(=O)c1cc(=O)n2nc(COC(C)=O)nc2[nH]1,260 °C
16,COC(=O)c1ccc(C(O)c2cc3cc(C(F)(F)F)ccc3n2S(=O)(=O)c2ccc(C(C)C)cc2)cc1 (configuration not stated),68 °C
17,CCNC(=O)c1occc1[Si](C)(C)C,69 to 72 °C
18,CC(=O)OC1COC(SCCCCCCOC2CCC3(C)C(=CCC4C3CCC3(C)C(C(C)CCCC(C)C)CCC43)C2)C(OC(C)=O)C1OC(C)=O (configuration not stated),106 to 108 °C
19,Cc1ccc(N2C(=O)C(O)=C(C(=O)c3ccc(N4CCOCC4)cc3)C2c2ccc(OC(F)(F)F)cc2)nn1 (configuration not stated),234 °C
20,CCCc1c(OCCCCCOc2ccc(C(=O)CCC(=O)O)cc2CCC(=O)O)ccc2c1OCCC2=O,182 to 184 °C
21,N#CC1(C(O)(Cn2cncn2)c2ccc(Cl)cc2)CC1 (configuration not stated),107 °C
22,CC1CC(c2cc3ccc(F)cc3s2)CCN1 (configuration not stated),34 to 37 °C
23,O=C(NNS(=O)(=O)c1ccccc1)c1ccc(I)cc1,193 to 195 °C
24,O=Cc1cc(=O)n2ccsc2n1,184 to 186 °C

row,SMILES,melting point
1,O=[N+]([O-])c1cc(OCc2ccccc2)ccc1CCBr,30 to 34 °C
2,O=C(O)c1cc([N+](=O)[O-])cc(Br)n1,172 to 173 °C
3,CC1(C)OCC(N2CCC(Cc3ccccc3)CC2)O1 (configuration not stated),92 to 94 °C
4,O=S(=O)(c1ccccc1)c1ccc(Cl)cn1,154 to 155 °C
5,Cc1cc(Cc2cc(C(C)(C)C)cc(-n3nc4ccccc4n3)c2O)c(O)c(C(C)(C)C)c1,175 °C
6,Cc1ccc(N2C(=O)C(O)=C(C(=O)c3ccc(C(C)C)cc3)C2c2ccc(Cn3ccnn3)cc2)nn1 (configuration not stated),293 °C
7,Cc1cccc(-c2[nH]c(C(C)C)nc2-c2cccc(-c3ccc(S(C)(=O)=O)cc3)c2)n1,104 to 106 °C
8,CC=Cn1c(=S)sc2c(=N)n(NC(=O)c3ccco3)cnc21,218 °C
9,CC(=O)N1CC(CCN2CC=C(c3ccccc3)CC2)c2ccccc21 (configuration not stated),109 to 111 °C
10,CN(C)c1ccc2c(c1)C(C)(C)C1(C=Cc3cc([N+](=O)[O-])ccc3S1)N2C (configuration not stated),166 to 167 °C
11,C[C@@H](O)C(O)(Cn1ccnc1)c1ccc(F)cc1F (some centres not stated),73 to 76 °C
12,CC(C)Oc1cccc(CSc2nc(N)cc(Cl)n2)c1,71 °C
13,COc1ccc(-c2cc(=O)n(C(C)C)nc2-c2ccc(OC)cc2)cc1,128 to 129 °C
14,CCn1ncc2c1ncc1c(Cl)nc3cc(C)nn3c12,179 to 180 °C
15,O=C(NCC1(c2ccccc2)CCCCC1)Nc1cccc(C(F)(F)F)c1,147 to 151 °C
16,COC(=O)c1ccc(=O)n(CCN(C)C(=O)c2cccnc2)c1,120 to 122 °C
17,CC(=O)SCC(Cc1ccccc1)C(=O)Nc1cc(C(=O)OCc2ccccc2)ccc1C (configuration not stated),134 to 135 °C
18,CCOC(=O)COc1ccc(C(=O)Nc2cccc(Cl)c2Cl)cc1,126 to 129 °C
19,COC(=O)C1=C(C)NC(CF)=C(C(=O)OC)C1c1c(F)c(F)c(F)c(F)c1F (configuration not stated),148 to 150 °C
20,COC(=O)C1=CSCC1OC (configuration not stated),79 to 81 °C
21,c1ccc(-n2c(-c3ccc(OCCCN4CCCCC4)cc3)nc3ccccc32)cc1,86 °C
22,O=C(O)Cn1cc2c(=O)n3c(nc2n1)SCC3,276 °C
23,O=C(NCCc1ccccc1)c1ccc(S(=O)(=O)Nc2ccccc2C(=O)O)cc1,242 to 244 °C
24,CC(C)(C(=O)O)c1cccc(OCc2ccccc2)c1,114 to 116 °C

# Other lines, results leading:
row,melting point,SMILES
1,220 °C,O=C1NC(=O)C(Cc2ccc3nc(Cc4ccc(Cl)cc4)oc3c2)S1 (configuration not stated)
2,161 to 163 °C,CCn1c(=O)c2cnn3c2n(c1=O)CC=C3c1cccc(C(F)(F)F)c1
3,175 °C,[N-]=[N+]=NCC1Cc2cc(I)c3[nH]c(=O)ccc3c2O1 (configuration not stated)
4,231 °C,CC(C)(C)OC(=O)c1ccc(NC2CCc3cc4nc(COC(=O)C(C)(C)C)[nH]c(=O)c4cc32)cc1 (racemic)
5,110 to 111 °C,COCC1CN(c2ccc3c(c2)CCC(CCC(F)(F)F)O3)C(=O)O1 (configuration not stated)
6,94 to 96 °C,Cc1nc(N)nc(N[C@@H]2CCc3ccccc32)n1
7,173 to 174 °C,Cn1nc(C=NO)nc1NCCCOc1cccc(CN2CCCCC2)c1
8,250 to 252 °C,C=CCNc1nc(C)c(C(=O)c2ccc(N)c([N+](=O)[O-])c2)s1
9,138 to 139 °C,O=C1CNN=C(c2ccccn2)N1
10,145 to 147 °C,CC(CO)Nc1c(Br)cnc2cc(Cl)ccc12 (configuration not stated)
11,118 to 119 °C,CCOC(=O)c1c(C(F)(F)F)[nH]cc(-c2cc(OC(C)C)c(Cl)cc2F)c1=O
12,227 to 229 °C,Cc1c(-c2ccccc2)sc2nc(NCCO)[nH]c(=O)c12
13,216 to 218 °C,CSc1nn2c(N)cc(CN(C)C)nc2c1S(=O)(=O)c1ccccc1
14,139 to 142 °C,Cc1cccc(C#C[C@@]2(O)CCC[C@@H](NC(=O)c3ccco3)C2)c1
15,175 to 177 °C,COc1ccc(C(=O)Nc2c(Cl)cncc2Cl)cc1OC1COCC1OC (configuration not stated)
16,76 °C,CC(=O)Oc1cc(Br)cc2c1OC(C)(C)C2
17,206 to 211 °C,CC(=O)Nc1ccc(CNc2n[nH]c(N=CN(C)C)c2C#N)cc1
18,269 to 271 °C,O=Cc1c2ccc(Cl)cc2c(Cl)c2ccc(Cl)cc12
19,153 to 154 °C,O=c1ccnc(NCCCN(Cc2ccccc2Cl)c2ccccn2)[nH]1
20,170 to 172 °C,Cn1cc(-c2ccc(Cl)cc2)c(=O)c(-c2cccc(Cl)c2)c1
21,95 to 98 °C,CCCCCCCC1CC(C(=O)Nc2c(C(C)C)cccc2C(C)C)C(=O)O1 (configuration not stated)
22,155 to 157 °C,CC(=O)OCC1OC(n2c(Cl)nc3ccc(Cl)cc32)C(OC(C)=O)C1OC(C)=O (configuration not stated)
23,116 to 118 °C,CCCC(CCC)n1c(CC)nc2c1C(=O)N(C)C(CC)N2c1ccc(Cl)cc1Cl (configuration not stated)
24,188 to 189 °C,O=c1[nH]c2ccc(F)cc2s1
